Test results taken from doi:10.1101/2020.04.24.059154v2 (biorxiv, 2021).

Target: T1, AfLPMO16 (Aspergillus fumigatus, UniProt A0A7D5FGU2)
T1 sequence (A0A7D5FGU2 20-290 limits assumed): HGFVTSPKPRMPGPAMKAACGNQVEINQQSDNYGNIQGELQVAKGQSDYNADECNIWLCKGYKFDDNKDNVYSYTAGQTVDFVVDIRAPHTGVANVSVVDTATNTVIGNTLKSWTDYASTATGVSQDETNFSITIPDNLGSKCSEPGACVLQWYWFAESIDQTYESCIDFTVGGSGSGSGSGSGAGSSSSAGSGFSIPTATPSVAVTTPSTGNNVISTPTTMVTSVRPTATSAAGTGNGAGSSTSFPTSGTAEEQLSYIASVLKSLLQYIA
Test: spectrophotometric 1-coerulignone formation at […] nm, Lineweaver-Burk plot
Assay type: biochemical
Settings: 5 uM hydrogen peroxide as co-substrate, 100 mM phosphate buffer pH 6.0, 30 C

**Q.** For `COc1cccc(OC)c1O` [2,6-dimethoxyphenol], which Km is on record?
**A.** The Km was 5.4 mM.
